Laboratory results as given in patent US11098238B2, “Tracer and method” (JOHNSON MATTHEY PUBLIC LIMITED COMPANY, priority 2016, dated 2021).

Key:
[1] = log Kow (octanol/water partition coefficient); format: physicochemical; conditions: for Log Kow: base-10 logarithm of ratio of equilibrium concentrations in octanol and water
Text: Preferably the system is an oil reservoir and the property is the residual oil saturation. Thus, preferably the use is of a partitioning tracer for determining residual oil saturation, the partitioning tracer comprising a sulfone compound having a log Kow value in the range −0.5 to 3. Preferably the log Kow value is in the range 0.5 to 1.5. Those ranges may give optimum partitioning into the oil in the formation. If the log Kow value is too high, the partitioning tracer will spend too long in the oil and will not be released from the well in a reasonable time, or even at all. If the log Kow value is too low, the partitioning tracer will largely remain in the water phase and there will not be a sufficient differential between the release of the conservative and partitioning tracers. The log Kow value is the base-10 logarithm of the ratio of the equilibrium concentrations of the tracer in octanol and water and can be determined for example, by the method described in “Experimental Aspects of Partitioning Tracer Tests for Residual Oil Saturation Determination with FIA-based Laboratory Equipment, SPE Reservoir Engineering, May 1990, pages 239-244”.
The log Kow values are either experimentally determined or estimated using KOWWIN v1.68.

[2] = Vapour pressure

Row | SMILES | Log Kow [1] | Vapour Pressure [2] [mm Hg] | log Kow value [1]
1 | OC(C(F)(F)F)C(F)(F)F [1,1,1,3,3,3-Hexafluoro-2-propanol, 1,1,1,3,3,3-hexafluoro-2-propanol] | 1.66 | 156 | 
2 | OCc1ccc(Cl)cc1 [4-Chlorobenzyl alcohol, 4-chlorobenzyl alcohol] | 1.72 | 0.00268 | 
3 | CS(=O)(=O)c1ccc(Cl)cc1 [4-Chlorophenyl methyl sulfone, 4-chlorophenyl methyl sulfone] | 1.21 |  | 
4 | CS(C)(=O)=O [dimethylsulfone] |  |  | −1.11
